Measured values published in ChEMBL document CHEMBL1137026, “Design and synthesis of novel Cdc25A-inhibitors having phosphate group as a hydrophilic residue” (Bioorg Med Chem Lett, 2004).

Assays:
[1] = target: T1, M-phase inducer phosphatase 2 (Homo sapiens, UniProt P30305); assay: Inhibitory concentration against dual-specificity phosphatase Cell division cycle (Cdc) 25B
T1 sequence (P30305 whole entry): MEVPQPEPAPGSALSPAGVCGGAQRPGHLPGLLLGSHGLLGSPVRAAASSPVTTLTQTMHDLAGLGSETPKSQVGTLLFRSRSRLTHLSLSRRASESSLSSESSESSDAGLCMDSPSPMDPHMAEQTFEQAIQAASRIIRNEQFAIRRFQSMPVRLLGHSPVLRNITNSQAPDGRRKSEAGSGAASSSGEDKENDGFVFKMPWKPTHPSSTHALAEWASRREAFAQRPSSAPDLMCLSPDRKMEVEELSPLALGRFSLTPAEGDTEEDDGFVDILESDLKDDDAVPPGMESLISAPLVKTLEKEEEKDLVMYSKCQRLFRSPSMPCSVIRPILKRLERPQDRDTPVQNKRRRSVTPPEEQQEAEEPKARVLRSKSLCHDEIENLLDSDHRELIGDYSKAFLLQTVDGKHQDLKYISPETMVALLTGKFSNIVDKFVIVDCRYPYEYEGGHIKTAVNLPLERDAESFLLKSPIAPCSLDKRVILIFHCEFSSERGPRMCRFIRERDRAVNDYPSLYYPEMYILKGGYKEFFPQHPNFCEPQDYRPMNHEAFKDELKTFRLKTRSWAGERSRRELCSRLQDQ

[2] = target: T2, M-phase inducer phosphatase 1 (Homo sapiens, UniProt P30304); assay: Inhibitory concentration against dual-specificity phosphatase Cell division cycle (Cdc) 25A
T2 sequence (P30304 whole entry): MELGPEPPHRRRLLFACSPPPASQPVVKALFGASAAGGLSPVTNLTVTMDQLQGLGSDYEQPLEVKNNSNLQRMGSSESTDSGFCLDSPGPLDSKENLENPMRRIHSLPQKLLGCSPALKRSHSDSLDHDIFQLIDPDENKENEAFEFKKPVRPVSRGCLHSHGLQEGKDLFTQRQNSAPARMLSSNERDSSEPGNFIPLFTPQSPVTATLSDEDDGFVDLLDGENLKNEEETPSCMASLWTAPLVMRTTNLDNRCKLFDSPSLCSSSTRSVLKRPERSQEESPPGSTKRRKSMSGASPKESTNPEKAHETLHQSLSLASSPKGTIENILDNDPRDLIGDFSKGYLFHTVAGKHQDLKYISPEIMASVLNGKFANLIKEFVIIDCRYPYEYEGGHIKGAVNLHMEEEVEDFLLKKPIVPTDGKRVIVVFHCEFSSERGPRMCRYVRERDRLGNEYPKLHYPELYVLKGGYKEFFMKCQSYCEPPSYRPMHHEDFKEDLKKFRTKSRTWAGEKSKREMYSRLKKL

| IC50 [1] [µM] | IC50 [2] [µM] | Compound |
| --- | --- | --- |
| 4.5 | 22.7 | CC(C)CCC[C@@H](C)[C@H]1CCC2[C@@](C)(CO)CCC[C@@]21C (some centres not stated) |
| 5.8 | 3.9 | CC(C)CCC[C@@H](C)[C@H]1CCC2[C@@H](O)CCC[C@@]21C (some centres not stated) |
| 1.7 | 5.5 | CC(C)CCC[C@@H](C)[C@H]1CCC2[C@](C)(CCO)CCC[C@@]21C (some centres not stated) |
| 3.3 | 8.5 | CC(C)CCC[C@@H](C)[C@H]1CCC2[C@](C)(CO)CCC[C@@]21C (some centres not stated) |
| 5.9 | 17.2 | CC(C)CCC[C@@H](C)[C@H]1CCC2/C(=C/C(=O)O)CCC[C@@]21C (some centres not stated) |
| 5 | 8.2 | CC(C)CCC[C@@H](C)[C@H]1CCC2[C@@H](OP(=O)(O)O)CCC[C@@]21C (some centres not stated) |

Second part, the molecule before the results:

| Compound | IC50 [1] [µM] | IC50 [2] [µM] |
| --- | --- | --- |
| CC(C)CCC[C@@H](C)[C@H]1CCC2[C@@](C)(CCOP(=O)(O)O)CCC[C@@]21C (some centres not stated) | 6.8 | 24.5 |
| CC(C)CCC[C@@H](C)[C@H]1CCC2[C@@](C)(CCO)CCC[C@@]21C (some centres not stated) | 1.3 | 6.9 |
| CC(C)CCC[C@@H](C)[C@H]1CCC2[C@](C)(CCOP(=O)(O)O)CCC[C@@]21C (some centres not stated) | 1.2 | 5.5 |
| CC(C)CCC[C@@H](C)[C@H]1CCC2[C@@](C)(COP(=O)(O)O)CCC[C@@]21C (some centres not stated) | 3.7 | 0.7 |
| CC(C)CCC[C@@H](C)[C@H]1CCC2C(C)(COP(=O)(O)O)CCC[C@@]21C (single isomer, unassigned) | 3 | 0.9 |
